In patent EP1247803A2, “Indolinone compounds suitable for modulation of protein kinases” (Sugen, Inc., priority 1996, dated 1998):

Assays:
EGFR = molecular target: T1, EGFR (Homo sapiens, UniProt P00533); assay: EGFR ELISA assay (in vitro kinase activity, EGFR captured from A431 cell lysate); format: biochemical; set-up: concentration or dose not given beside the values
T1 construct: Add 7 ug A431 cell lysate per well (EGFR source); endogenous in cells; host or cells: A431
In short: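 EGFR from A431 lysate was captured on plates coated with anti-EGFR antibody. Compounds were added 30 min before a 5 min phosphorylation with 3 µM ATP/5 mM MnCl2, which was stopped with 20 mM EDTA. Phosphotyrosine was detected with rabbit anti-phosphotyrosine, then a peroxidase-conjugated secondary and ABTS/H2O2, read at 410 nm.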

MET = MET biochemical kinase assay; set-up: species or system human; concentration or dose not given beside the values
In short: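 Human MET was captured from cell lysates onto ELISA plates via goat anti-rabbit Fc and rabbit polyclonal antibody to the MET cytoplasmic domain. After washing, test compounds and kinase buffer with ATP and divalent metal ions were added. Phosphotyrosine was detected with HRP-conjugated anti-phosphotyrosine antibody and TMB colorimetric read-out.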

T1 sequence (P00533 25-1210): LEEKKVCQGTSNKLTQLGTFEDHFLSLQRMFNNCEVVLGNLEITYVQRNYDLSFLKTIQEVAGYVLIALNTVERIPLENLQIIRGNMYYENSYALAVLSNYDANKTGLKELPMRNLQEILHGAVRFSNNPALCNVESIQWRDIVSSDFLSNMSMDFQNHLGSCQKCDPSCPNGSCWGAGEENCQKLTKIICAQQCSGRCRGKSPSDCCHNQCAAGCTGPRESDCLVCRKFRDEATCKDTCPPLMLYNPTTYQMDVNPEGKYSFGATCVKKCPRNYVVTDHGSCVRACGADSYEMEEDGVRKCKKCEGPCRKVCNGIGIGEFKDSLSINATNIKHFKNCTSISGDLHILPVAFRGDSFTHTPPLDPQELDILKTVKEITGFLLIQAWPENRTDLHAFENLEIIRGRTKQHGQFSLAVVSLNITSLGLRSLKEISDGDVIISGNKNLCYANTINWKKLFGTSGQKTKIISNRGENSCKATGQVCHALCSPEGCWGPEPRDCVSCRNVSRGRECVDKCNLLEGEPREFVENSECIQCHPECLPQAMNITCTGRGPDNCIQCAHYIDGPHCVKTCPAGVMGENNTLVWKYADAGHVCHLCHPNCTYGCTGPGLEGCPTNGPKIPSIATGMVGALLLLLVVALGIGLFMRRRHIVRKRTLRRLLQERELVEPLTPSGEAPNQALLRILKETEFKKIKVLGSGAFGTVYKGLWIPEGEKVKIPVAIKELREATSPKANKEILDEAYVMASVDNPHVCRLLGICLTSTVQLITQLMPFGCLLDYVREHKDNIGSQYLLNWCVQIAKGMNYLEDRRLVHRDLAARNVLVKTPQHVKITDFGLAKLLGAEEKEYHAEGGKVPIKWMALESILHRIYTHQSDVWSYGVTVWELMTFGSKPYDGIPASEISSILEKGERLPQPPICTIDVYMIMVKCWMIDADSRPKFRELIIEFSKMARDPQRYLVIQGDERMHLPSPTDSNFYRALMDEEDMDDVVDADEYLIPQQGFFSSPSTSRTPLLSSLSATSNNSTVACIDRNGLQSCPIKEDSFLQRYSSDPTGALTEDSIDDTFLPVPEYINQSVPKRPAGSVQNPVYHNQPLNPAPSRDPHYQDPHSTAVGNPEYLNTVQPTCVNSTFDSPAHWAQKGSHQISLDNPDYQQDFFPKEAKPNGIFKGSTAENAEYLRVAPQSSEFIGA

| SMILES | Biochem EGFR %Inhibition (EGFR) | Met Kinase % Inhibition (MET) |
| --- | --- | --- |
| O=C1Nc2c(Br)cc(Br)cc2C1=Cc1csc([N+](=O)[O-])c1 [10722/A09] | 16.8% | 86.5% |
| CCCCN(CCCC)c1ccc(C=C2C(=O)Nc3c(Br)cc(Br)cc32)cc1 [10722/A10] | -4.2% | 79.0% |
| O=C1Nc2c(Br)cc(Br)cc2C1=Cc1ccc(C(F)(F)F)cc1 [10722/A11] | -0.1% | 68.6% |
| CC(C)(C)c1cc(C=C2C(=O)Nc3ccc(I)cc32)cc([N+](=O)[O-])c1O [10722/B02] | 16.3% | 44.3% |
| O=C1Nc2ccc(I)cc2C1=Cc1c(O)cc(O)cc1O [10722/B03] | 19.6% | 40.1% |
| O=C1Nc2ccc(I)cc2C1=Cc1ccc([N+](=O)[O-])s1 [10722/B04] | 10.6% | 53.4% |
| O=C1Nc2ccc(I)cc2C1=Cc1ccc(C(=O)O)cc1 [10722/B05] | 9.3% | 67.2% |
| O=C1Nc2ccc(I)cc2C1=Cc1ccc(F)cc1F [10722/B06] | -4.9% | 72.6% |
| CC(C)(C)c1cc(C=C2C(=O)Nc3ccc(I)cc32)cc(Cl)c1O [10722/B08] | 0.5% | 72.0% |
| CCCCN(CCCC)c1ccc(C=C2C(=O)Nc3ccc(I)cc32)cc1 [10722/B10] | -11.3% | 56.4% |
| O=C1Nc2ccc(I)cc2C1=Cc1ccc(C(F)(F)F)cc1 [10722/B11] | -15.5% | 83.0% |
| CNS(=O)(=O)c1ccc2c(c1)C(=Cc1cc([N+](=O)[O-])c(O)c(C(C)(C)C)c1)C(=O)N2 [10722/D02] | 26.1% | 26.4% |
| CNS(=O)(=O)c1ccc2c(c1)C(=Cc1c(O)cc(O)cc1O)C(=O)N2 [10722/D03] | 31.0% | 52.8% |
| CNS(=O)(=O)c1ccc2c(c1)C(=Cc1ccc([N+](=O)[O-])s1)C(=O)N2 [10722/D04] | 20.3% | 63.4% |
| CNS(=O)(=O)c1ccc2c(c1)C(=Cc1ccc(C(=O)O)cc1)C(=O)N2 [10722/D05] | -3.8% | 35.8% |
| CNS(=O)(=O)c1ccc2c(c1)C(=Cc1ccc(F)cc1F)C(=O)N2 [10722/D06] | -2.5% | 32.4% |

| SMILES | Biochem EGFR %Inhibition (EGFR) | Met Kinase % Inhibition (MET) |
| --- | --- | --- |
| CNS(=O)(=O)c1ccc2c(c1)C(=Cc1cc(C)c(O)c(C)c1)C(=O)N2 [10722/D07] | -2.8% | 42.6% |
| CNS(=O)(=O)c1ccc2c(c1)C(=Cc1cc(Cl)c(O)c(C(C)(C)C)c1)C(=O)N2 [10722/D08] | -2.6% | 60.5% |
| CNS(=O)(=O)c1ccc2c(c1)C(=Cc1csc([N+](=O)[O-])c1)C(=O)N2 [10722/D09] | -17.2% | 52.2% |
| CCCCN(CCCC)c1ccc(C=C2C(=O)Nc3ccc(S(=O)(=O)NC)cc32)cc1 [10722/D10] | -0.6% | 40.5% |
| CNS(=O)(=O)c1ccc2c(c1)C(=Cc1ccc(C(F)(F)F)cc1)C(=O)N2 [10722/D11] | -10.1% | 41.0% |
| CC(C)(C)c1cc(C=C2C(=O)Nc3ccc(S(=O)(=O)Nc4ccc(C(F)(F)F)cc4)cc32)cc([N+](=O)[O-])c1O [10722/E02] | 22.2% | 71.1% |
| O=C1Nc2ccc(S(=O)(=O)Nc3ccc(C(F)(F)F)cc3)cc2C1=Cc1c(O)cc(O)cc1O [10722/E03] | 33.0% | 88.4% |
| O=C1Nc2ccc(S(=O)(=O)Nc3ccc(C(F)(F)F)cc3)cc2C1=Cc1ccc([N+](=O)[O-])s1 [10722/E04] | 1.4% | 52.6% |
| O=C1Nc2ccc(S(=O)(=O)Nc3ccc(C(F)(F)F)cc3)cc2C1=Cc1ccc(C(=O)O)cc1 [10722/E05] | -7.0% | 73.0% |
| O=C1Nc2ccc(S(=O)(=O)Nc3ccc(C(F)(F)F)cc3)cc2C1=Cc1ccc(F)cc1F [10722/E06] | 7.6% | 71.6% |
| Cc1cc(C=C2C(=O)Nc3ccc(S(=O)(=O)Nc4ccc(C(F)(F)F)cc4)cc32)cc(C)c1O [10722/E07] | 28.7% | 71.6% |
| CC(C)(C)c1cc(C=C2C(=O)Nc3ccc(S(=O)(=O)Nc4ccc(C(F)(F)F)cc4)cc32)cc(Cl)c1O [10722/E08] | 10.4% | 82.8% |
| O=C1Nc2ccc(S(=O)(=O)Nc3ccc(C(F)(F)F)cc3)cc2C1=Cc1csc([N+](=O)[O-])c1 [10722/E09] | 4.1% | 55.1% |
| CCCCN(CCCC)c1ccc(C=C2C(=O)Nc3ccc(S(=O)(=O)Nc4ccc(C(F)(F)F)cc4)cc32)cc1 [10722/E10] | -13.3% | 86.6% |
| O=C1Nc2ccc(S(=O)(=O)Nc3ccc(C(F)(F)F)cc3)cc2C1=Cc1ccc(C(F)(F)F)cc1 [10722/E11] | 4.2% | 84.0% |
